Read-outs that look alike come from different tables or passages of the source.

Broadly, the IC50 is the midpoint of a concentration-inhibition curve.

The test system of one assay is HeLa cells. Description: MTT cytotoxicity assay, HeLa. It counts as cell-based, human. Particulars: for IC50: Homo sapiens, HeLa, MTT; for Selectivity index HeLa/MRC-5 24 h: SI between HeLa and MRC-5, 24 h; for Selectivity index HeLa/MRC-5 72 h: SI between HeLa and MRC-5, 72 h. The method, then: (§1) The in vitro cytotoxic activity of the tested compounds was investigated on four model systems: human colorectal carcinoma HCT-116, human breast cancer MDA-MB-231, human cervical cancer HeLa, and human healthy fibroblast MRC-5 cell lines. The cell lines of low passages were purchased from ECACC and were cultivated in Dulbecco’s Modified Eagle Medium (DMEM; Sigma-Aldrich, Germany, D5796) supplemented with 10% fetal bovine serum (Sigma-Aldrich, F4135-500ML) and 1% penicillin/streptomycin (Sigma-Aldrich, P4333-100ML) in 75 cm^2 culture flasks. The cells were harvested in an incubator under a humidified atmosphere with 5% CO2 at a physiological temperature of 37 °C, and after a few passages and a confluence of about 90%, the cells were used for the MTT assay.
(§2) The capacity of tested compounds to prevent the growth of four different cell lines was assessed by a standardized MTT assay (Laboratory for Bioengineering protocol CB-005, Kragujevac, Serbia), based on spectrophotometric measurement of the reduction of 3-(4,5-dimethylthiazol-2-yl)-2,5-diphenyltetrazolium bromide (MTT, Acros Organics, NJ, USA 158990010) to purple formazan crystals subsequently dissolved in dimethyl sulfoxide (DMSO; Fisher Chemical, IL, USA D/4121/PB15). A number of 1 × 10^4 cells per well (in 96-well microplates) were seeded and maintained in an incubator for 24 h to allow for cell attachment. After the incubation period, the cells were treated with the investigated compounds in the concentration range from 0.1 to 500 µM dissolved in DMEM. Cytotoxic effect was calculated 24 and 72 h from treatment by determination of the number of viable cells. The absorbance measured at 550 nm and was performed on a microplate reader (Rayto 2100C, China). The cytotoxicity was derived as the ratio of the absorbance of the treated cells divided with the absorbance of negative control (untreated cells) and multiplied by 100 to obtain the percentage of the viable cells.
For orientation: Tetrazolium assays rely on reduction of a dye to a coloured formazan, in cell work by metabolically active cells.

Another assay concerns HCT-116 cells. The experiment in a line: MTT cytotoxicity assay, HCT-116. It counts as cell-based, human. Particulars: for IC50: Homo sapiens, MTT; for Selectivity index HCT-116/MRC-5 24 h: SI between HCT-116 and MRC-5, 24 h; for Selectivity index HCT-116/MRC-5 72 h: SI between HCT-116 and MRC-5, 72 h. The procedure: as §1, §2
A further assay relates to MRC-5 cells. Description: MTT cytotoxicity assay, MRC-5 healthy fibroblasts. Type of assay: cell-based. Particulars: Homo sapiens. The procedure:
as §1, §2

The test system of the next assay is MDA-MB-231 cells. The experiment in a line: MTT cytotoxicity assay, MDA-MB-231. Type of assay: cell-based. To be noted: Homo sapiens. The procedure:
as §1, §2

[1] abbreviates: read-out: IC50 HeLa 24 h, 24 h exposure.
[2] abbreviates: 72 h exposure, read-out: IC50 HeLa 72 h.
The mark [3] stands for this setting: read-out: IC50 HCT-116 24 h, HCT-116, 24 h exposure.
Where [4] appears, read: HCT-116, 72 h exposure, read-out: IC50 HCT-116 72 h.
Where [5] appears, read: MRC5, MRC-5, 72 h exposure, read-out: IC50 MRC-5 72 h.
The mark [6] stands for this setting: MRC5, read-out: IC50 MRC-5 24 h, MRC-5, 24 h exposure.
Setting [7] is: MDA-MB-231, 72 h exposure, read-out: IC50 MDA-MB-231 72 h.
Where [8] appears, read: read-out: IC50 MDA-MB-231 24 h, MDA-MB-231, 24 h exposure.

With `C/C(NCCc1ccc(O)cc1)=C1\C(=O)Oc2ccccc2C1=O` [L1, (E)-3-(1-((4-hydroxyphenethyl)amino)ethylidene)chromane-2,4-dione], the IC50 in the assay on HeLa cells (setting [1]) is greater than 500 µM; in the assay with HeLa cells (setting [2]) it was 452 µM; in the assay on HCT-116 cells (setting [3]) it was greater than 500 µM; in the assay with HCT-116 cells (setting [4]) it was 170 µM; in the assay on MRC-5 cells (setting [5]), greater than 500 µM; in the assay on MRC-5 cells (setting [6]), greater than 500 µM. Moreover, the IC50 in the assay on MDA-MB-231 cells (setting [7]) and in the assay on MDA-MB-231 cells (setting [8]) was greater than 500 µM each time. Moreover, in the assay on HeLa cells, the “Selectivity index HeLa/MRC-5 24 h” value was found to be 1. For the same molecule, the “Selectivity index HeLa/MRC-5 72 h” value with HeLa cells came to 1.1. Besides, in the assay on HCT-116 cells, the “Selectivity index HCT-116/MRC-5 24 h” value was 1. In the assay on HCT-116 cells, the “Selectivity index HCT-116/MRC-5 72 h” value is on record as 2.9.
For `C/C(NCC(O)c1ccc(O)cc1)=C1\C(=O)Oc2ccccc2C1=O` (stereo not drawn) [L2, (E)-3-(1-((2-hydroxy-2-(4-hydroxyphenyl)ethyl)amino)ethylidene)chromane-2,4-dione], the IC50 in the assay with HeLa cells (setting [1]) is greater than 500 µM; in the assay on HeLa cells (setting [2]) it was 206 µM; with HCT-116 cells (setting [3]), greater than 500 µM; in the assay with HCT-116 cells (setting [4]) it was 248 µM; in the assay on MRC-5 cells (setting [5]), greater than 500 µM; with MRC-5 cells (setting [6]), greater than 500 µM. Moreover, the IC50 in the assay with MDA-MB-231 cells (setting [7]) and with MDA-MB-231 cells (setting [8]) was greater than 500 µM in each case. Moreover, in the assay with HeLa cells, the “Selectivity index HeLa/MRC-5 24 h” value is on record as 1. Further, in the assay on HeLa cells, the “Selectivity index HeLa/MRC-5 72 h” value was 2.4. Besides, the “Selectivity index HCT-116/MRC-5 24 h” value in the assay with HCT-116 cells was determined as 1. The “Selectivity index HCT-116/MRC-5 72 h” value with HCT-116 cells turned out to be 2.0.
Turning to `C/C(NCC(O)c1ccc(O)c(O)c1)=C1\C(=O)Oc2ccccc2C1=O` (stereo not drawn) [L3, (E)-3-(1-((2-(3,4-dihydroxyphenyl)-2-hydroxyethyl)amino)ethylidene)chromane-2,4-dione], the 50% inhibitory concentration (IC50) in the assay on HeLa cells (setting [1]) is greater than 500 µM; in the assay on HeLa cells (setting [2]), 495 µM; in the assay on HCT-116 cells (setting [3]), greater than 500 µM; in the assay with HCT-116 cells (setting [4]), 107 µM; in the assay on MRC-5 cells (setting [5]) it was greater than 500 µM; in the assay on MRC-5 cells (setting [6]), greater than 500 µM. For the same molecule, the IC50 in the assay with MDA-MB-231 cells (setting [7]) and with MDA-MB-231 cells (setting [8]) was greater than 500 µM each time. Moreover, in the assay with HeLa cells, the “Selectivity index HeLa/MRC-5 24 h” value came out at 1. Moreover, the “Selectivity index HeLa/MRC-5 72 h” value with HeLa cells turned out to be 1. The “Selectivity index HCT-116/MRC-5 24 h” value with HCT-116 cells came to 1. The “Selectivity index HCT-116/MRC-5 72 h” value with HCT-116 cells is 4.7.
In the case of `COc1cc(CCN/C(C)=C2/C(=O)Oc3ccccc3C2=O)ccc1O` [L4, (E)-3-(1-((4-hydroxy-3-methoxyphenethyl)amino)ethylidene)chromane-2,4-dione], the IC50 in the assay on HeLa cells (setting [1]) is greater than 500 µM; in the assay on HeLa cells (setting [2]), 150 µM; in the assay with HCT-116 cells (setting [3]) it was greater than 500 µM; with HCT-116 cells (setting [4]) it was 74 µM; in the assay with MRC-5 cells (setting [5]), greater than 500 µM; in the assay with MRC-5 cells (setting [6]), greater than 500 µM. The IC50 in the assay on MDA-MB-231 cells (setting [7]) and in the assay with MDA-MB-231 cells (setting [8]) was greater than 500 µM each time. Besides, the “Selectivity index HeLa/MRC-5 24 h” value in the assay on HeLa cells is on record as 1. Also, the “Selectivity index HeLa/MRC-5 72 h” value in the assay on HeLa cells is given as 3.3. For the same molecule, the “Selectivity index HCT-116/MRC-5 24 h” value with HCT-116 cells amounted to 1. Further, the “Selectivity index HCT-116/MRC-5 72 h” value with HCT-116 cells stood at 6.8.
As for `CC(NCCc1ccc(O)c(O)c1)=C1C(=O)Oc2ccccc2C1=O` [L5, 3-(1-((3,4-dihydroxyphenethyl)amino)ethylidene)-chroman-2,4-dione], the half-inhibitory concentration (IC50) in the assay with HeLa cells (setting [1]) was greater than 500 µM; in the assay on HeLa cells (setting [2]) it was 92 µM; with HCT-116 cells (setting [3]), greater than 500 µM; in the assay on HCT-116 cells (setting [4]) it was 73 µM; with MRC-5 cells (setting [5]), greater than 500 µM; in the assay with MRC-5 cells (setting [6]), greater than 500 µM. The IC50 in the assay with MDA-MB-231 cells (setting [7]) and in the assay with MDA-MB-231 cells (setting [8]) was greater than 500 µM throughout. The “Selectivity index HeLa/MRC-5 24 h” value with HeLa cells worked out at 1. The “Selectivity index HeLa/MRC-5 72 h” value in the assay on HeLa cells was found to be 5.4. For the same molecule, the “Selectivity index HCT-116/MRC-5 24 h” value in the assay on HCT-116 cells is 1. The “Selectivity index HCT-116/MRC-5 72 h” value in the assay with HCT-116 cells was 6.8.

Source of the values: PMC8780855, “Synthesis, Crystallographic, Quantum Chemical, Antitumor, and Molecular Docking/Dynamic Studies of 4-Hydroxycoumarin-Neurotransmitter Derivatives” (International Journal of Molecular Sciences, 2022).
